pIC50: −log10 of the molar value.
Columns and labels:
female NMRI mice = experiment: Anorectic action: cumulative milk consumption after oral administration; type: in vivo; settings: for cumulative milk consumption by treated animals: feed removed 17 h, monitored for 7 hours, N=5; for Reduction in cumulative milk consumption as % of the control: versus vehicle-treated control animals
Description: The anorectic action was tested on female NMRI mice. After removal of feed for 17 hours, the preparation to be tested was administered by gavage. The animals were housed singly and, with free access to drinking water, they were offered evaporated milk 30 minutes after administration of the preparation. The consumption of evaporated milk was determined and the general behavior of the animals were monitored every half an hour for 7 hours. The measured milk consumption was compared to that of vehicle-treated control animals.

human MCH receptor = biological target: T1, human MCH receptor (Homo sapiens, UniProt Q99705); experiment: Functional measurement of cellular calcium flow (FLIPR) in recombinant HEK293 cells expressing human MCH receptor; type: cell-based; settings: cellular assay, calcium flow after addition of agonist (MCH), HEK293 (PEAK Stable Cells) expressing human MCH receptor
T1 construct: expressed in transfected cells
T1 sequence (Q99705 whole entry): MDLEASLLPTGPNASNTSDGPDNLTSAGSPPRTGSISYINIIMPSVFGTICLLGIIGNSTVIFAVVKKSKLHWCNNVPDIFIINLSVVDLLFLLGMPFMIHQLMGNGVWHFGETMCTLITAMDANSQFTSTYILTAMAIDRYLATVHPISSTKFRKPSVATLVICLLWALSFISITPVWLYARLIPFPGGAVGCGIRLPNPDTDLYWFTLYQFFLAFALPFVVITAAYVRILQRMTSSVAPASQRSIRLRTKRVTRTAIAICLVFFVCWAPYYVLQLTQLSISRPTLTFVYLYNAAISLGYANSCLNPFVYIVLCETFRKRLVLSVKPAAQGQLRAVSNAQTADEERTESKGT
Source text: In two simultaneously published articles in Nature (Nature, 400:261-264, 1999; Nature, 400:265-269, 1999, see enclosure), two groups separately described a highly specific receptor for melanin-concentrating hormone (MCH). MCH takes over important functions in the control of food intake. Compounds acting on the MCH receptor therefore have anorectic action and are suitable for the treatment of obesity. The test for anorectic action of the inventive compounds of formula I was therefore carried out as follows.
Functional measurements for determination of IC50
Cloning of the cDNA for human MCH receptor, preparation of a recombinant HEK293 cell line expressing human MCH receptor and functional measurements with said recombinant cell line were carried out according to the description by Audinot et al. (J. Biol. Chem., 276, 13554-13562, 2001). In contrast to the reference, however, plasmid pEAK8 from EDGE Biosystems (USA) was used for constructing the expression vector. A transformed HEK cell line named “PEAK Stable Cells” (likewise from EDGE Biosystems) served as host for transfection. The functional measurements of cellular calcium flow, after addition of agonists (MCH), in the presence of the ligand of the invention was carried out with the aid of the FLIPR instrument from Molecular Devices (USA), using the manufacturer's protocols.

For `CN(C)CCn1cnc2cc(NC(=O)Nc3ccc(Oc4ccccc4)cc3)ccc21` [Example 4, 1-[1-(2-Dimethylaminoethyl)-1H-benzoimidazol-5-yl]-3-(4-phenoxyphenyl)urea], the “cumulative milk consumption by treated animals” value (female NMRI mice; oral dose 10 mg/kg by gavage) was 5/2.74 mL, the “Reduction in cumulative milk consumption as % of the control” value (female NMRI mice; oral dose 10 mg/kg by gavage) was 38% and the pIC50 (human MCH receptor) was 6.89.
With `CN(C)CCn1ccc2cc(NC(=O)Nc3ccc(Oc4ccccc4)cc3)ccc21` [Example 1, 1-[1-(2-Dimethylaminoethyl)-1H-indol-5-yl]-3-(4-phenoxyphenyl)urea] the “cumulative milk consumption by treated animals” value (female NMRI mice; oral dose 30 mg/kg by gavage) was 5/2.28 mL, the “Reduction in cumulative milk consumption as % of the control” value (female NMRI mice; oral dose 30 mg/kg by gavage) was 30% and the pIC50 (human MCH receptor) was 6.82.

Reference: US20040198731A1, “Aminoalkyl-substituted aromatic bicyclic compounds, methods for their preparation and their use as pharmaceuticals” (Aventis Pharma Deutschland GmbH, priority 2001, published 2004)
